Source: patent US5962424A, “Methods and compositions for targeting selectins” (Arch Development Corporation, priority 1995, dated 1999)

What was measured:
selectin = conditions: cited from earlier work; for blocking of selectin binding to sLe^x: in vitro
[1] = tested on: E-selectin production in irradiated HUVEC; assay: x-ray-mediated E-selectin induction in HUVEC after inhibitor pretreatment (antibody labeling, flow cytometry); assay type: cell-based, human; conditions: H7 100 nM, staurosporin 10 nM, BPB 10 μM, mepacrine 20 μM added prior to irradiation
Experimental: HUVEC and HMEC cells were grown to 90% confluence and irradiated with a GE Maxitron x-ray generator as previously described (Hallahan et al., 1989). Cells were removed from flasks with 0.1% collagenase, 0.01% EDTA, 0.25% BSA and pelleted in 12×75 mm polystyrene tubes. The supernatant was discarded and the cells were incubated with primary IgG1 antibody (mouse anti-human ICAM-1 and E-selectin-1; R&D Systems, Inc., Minneapolis,MN) for 20 min at 4° C.
The cells were then rinsed with isotonic phosphate buffered saline (PBS), pelleted and incubated with FITC-conjugated secondary antibody (goat anti-mouse IgG1) for 20 min at 4° C. The fluorescently labeled cells were rinsed in PBS and fixed in PBS containing 0.01% paraformaldehyde.
Fluorescence activated cell sorting (FACS) analysis was utilized for quantitation of receptor expression of ICAM-1 and E-selectin on HUVEC. The Becton Dickinson FACScanner was used with Lysis II software. Forward and side scatter fluorescence data identified 10,000 viable endothelial cells in each experimental group for unlabeled cells, nonspecific-antibody-labelled cells, ICAM-1-labeled cells and E-selectin-labeled cells. Fluorescence data were then accumulated on each group of 10,000 cells at 530 nm, the wavelength emitted by FITC.
The fluorescence data were expressed as histograms of events versus log fluorescence and analyzed in comparison to the autofluorescence of unlabelled cells as well as the fluorescence of baseline ICAM-1 labelled or E-selectin-1 labeled cells as appropriate. During inhibition studies, PKC inhibitors H7 100 nM and staurosporin 10 nM or Phospholipase A2 inhibitors BPB 10 μM or mepacrine 20 μM were added to cell cultures 30 min prior to irradiation.
PKC participates in both NFkB activation and signal transduction initiated by ionizing radiation (Hallahan et al., 1991). Furthermore, PLA2 participates in free-radical and x-ray-mediated PKC activation and gene induction (Hallahan et al., 1991). To determine whether PLA2 or PKC activation is required for radiation-mediated E-selectin induction, the inventors added the PKC inhibitors H7 and staurosporin or the PLA2 inhibitors BPB or mepacrine to HUVEC […] prior to irradiation. Following irradiation, cells were scraped and E-selectin was quantified by antibody labeling and flow cytometry.

[2] = tested on: HL60 cells / irradiated HUVECs; assay: adherence of HL60 cells to irradiated HUVECs; assay type: cell-based, human; conditions: 1 mM; added 4 h after 10 Gy irradiation, 30 min prior to HL60 cells
Experimental: Human leukemia cell line HL60 has been used to quantify leukocyte adhesion to endothelial cells (Jones et al., 1995). HL60 cells were added to HUVECs after exposure to 10 Gy or cells treated with otherwise identical conditions without irradiation. Cultures were washed and cells were counted using a hemocytometer. […] Glycyrrhizin, carminic acid or sialyl Lewis X (1 mM each, SIGMA) were added to irradiated cells at 4 h after irradiation and 30 min prior to the addition of HL60 cells.

[3] = rats, oral; cited from earlier work
E-selectin = conditions: competitive binding assay, cited from earlier work

Row | Compound | radiation-mediated E-selectin production [1] | adherence of HL60 cells to irradiated HUVECs [2] | other results
1 | CC1(C)[C@@H](O)CC[C@]2(C)[C@H]3C(=O)C=C4[C@@H]5C[C@@](C)(C(=O)O)CC[C@]5(C)CC[C@@]4(C)[C@]3(C)CC[C@@H]12 [18-β-glycyrrhetinic acid] |  |  | IC50 (selectin; read-out: IC50 (blocking selectin activity)): > 2000 µM
2 | O=C(CBr)c1ccc(Br)cc1 [BPB] | not attenuated |  | 
3 | CC1(C)[C@@H](O[C@H]2O[C@H](C(=O)O)[C@@H](O)[C@H](O)[C@H]2O[C@@H]2O[C@H](C(=O)O)[C@@H](O)[C@H](O)[C@H]2O)CC[C@]2(C)[C@H]3C(=O)C=C4[C@@H]5C[C@@](C)(C(=O)O)CC[C@]5(C)CC[C@@]4(C)[C@]3(C)CC[C@@H]12 [Glycyrrhizin] |  | blocked the adherence | blocking of selectin binding to sLe^x (selectin): block selectin binding; absorption from the gut [3]: poorly absorbed
4 | CC1CNCCN1S(=O)(=O)c1cccc2cnccc12 (stereo not shown) [H7] | not attenuated |  | 
5 | COC(=O)CCCCCCCCO[C@@H]1O[C@H](CO)[C@@H](O[C@@H]2O[C@@H](C)[C@@H](O)[C@@H](O)[C@@H]2O)[C@H](O[C@@H]2O[C@H](CO)[C@H](O)[C@H](O[C@]3(C(=O)O)C[C@H](O)[C@@H](NC(C)=O)[C@H]([C@H](O)[C@H](O)CO)O3)[C@H]2O)[C@H]1N [amino substituted sLe^a] |  |  | activity relative to the reducing tetrasaccharide sLe^x (E-selectin): 36 fold; IC50 (E-selectin; read-out: IC50 (blocking of E-selectin)): 21 ± 3 µM
6 | Cc1c(C(=O)O)c(O)cc2c1C(=O)c1c(O)c([C@@H]3O[C@H](CO)[C@@H](O)[C@H](O)[C@H]3O)c(O)c(O)c1C2=O [carminic acid] |  | blocked the adherence | blocking of selectin binding to sLe^x (selectin): blocked selectin binding at concentrations comparable to those of glycyrrhizin
7 | CCN(CC)CCCC(C)Nc1c2ccc(Cl)cc2nc2ccc(OC)cc12 (stereo not shown) [mepacrine] | not attenuated |  | 
8 | CC(=O)N[C@H]1[C@H]([C@H](O)[C@H](O)CO)O[C@@](O[C@H]2[C@@H](O)[C@@H](CO)O[C@@H](O[C@H]3[C@H](O[C@@H]4O[C@@H](C)[C@@H](O)[C@@H](O)[C@@H]4O)[C@@H](NC(C)=O)C(O)O[C@@H]3CO)[C@@H]2O)(C(=O)O)C[C@@H]1O (stereo partly shown) [sialyl Lewis X, Neu5Acα2-3Galβ1-4[Fucα1-3]GlcNAc] |  | blocked the adherence | 
9 | CN[C@@H]1C[C@H]2O[C@@](C)([C@@H]1OC)n1c3ccccc3c3c4c(c5c6ccccc6n2c5c31)C(=O)NC4 [staurosporin] | not attenuated |  | 
